Data published in US8173133B2, “Acyl pseudodipeptides which carry a functionalized auxiliary arm” (OM Pharma, priority 1999, dated 2012).

Assays:
[1] = test system: predendritic cells (DC-6); assay: dendritic cell differentiation test: FITC-Dextran take-up; format: cell-based, human; conditions: for Dextran % CD: products redissolved in pyrogen-free water, % of dendritic cells; for Dextran Fluorescence: mean fluorescence value; for concentration inducing differentiation of DC-6 cells into DC-9 cells: summary of phagocytosis and marker data
Description: The ability of products of the invention to induce maturation of predendritic cells into dendritic cells was assessed. The following parameters were measured: FITC-Dextran conjugate take-up and expression of CD83, CD86 surface markers.
Mononucleated cells of peripheral blood are isolated from buffy coats of healthy donors. Purified monocytes by adherence selection are resuspended in RPMI-1640 medium containing 10% of foetal calf serum (FCS), GM-CSF and IL-4 (10 ng/ml) at a density of 1×10^6 cells/ml. Cells are divided into Petri Dishes (10×10^6 cells per dish) and cultured for 6 days with a change to fresh medium after 3 days. Cells thus obtained are called predendritic cells (DC-6). Maturation of predendritic cells into mature dendritic cells is achieved by incubating cells with diluted solutions of the products or LPS (positive control) for 3 more days (see product section below). At day 9 (DC-9), cells are harvested and analyzed for different indicators of dendritic cell maturation: assessment of CD83, CD86 surface marker expression as well as of their ability to take up FITC-Dextran conjugate. All these parameters are analyzed by an EPICS-XL-MCL model FACS (Coulter Immunology, Hialeah, […]).
Expression of surface markers is given as % of mean fluorescence of LPS-activated cells (positive control); FITC-Dextran conjugate take-up rate is calculated based on take-up of cells maintained in basic medium and is expressed in %.
Solutions are incubated at 37° C. for 20 minutes, subjected to vigorous stirring during 3 minutes and then diluted to 100 μg/ml in RPMI-1640 culture medium and used in diluted state at concentrations ranging from 10 μg/ml to 0.03 μg/ml. Reference Product: E. coli lipopolysaccharide (LPS, DIFCO, Detroit, Mich., U.S.A.), as a 5 mg/ml stock solution in PBS. An intermediate 100 μg/ml solution is prepared in RPMI 1640 culture medium. Concentrations of dilute solutions being tested range from 1 μg/ml to 0.03 μg/ml.
In another series of experiments, all acyl dipeptide-like compounds were freeze-dried and directly redissolved into pyrogen-free water. Different products as well as LPS control are tested at a concentration of 10 μg/ml. Results are given as % of dendritic cells and mean fluorescence value for dextran phagocytosis or CD86 surface marker expression.
Immature dendritic cells (DC-6) resulting from monocyte differentiation, through the joint action of GM-CSF and IL-4, are able to incorporate FITC-Dextran conjugate. During the maturation process, cells lose their ability to incorporate the FITC-Dextran conjugate. Assays are conducted upon reaching the DC-9 differentiation stage.

[2] = test system: HIV-2 ROD; assay: anti-HIV activity in MT-4 cells (MTT), HIV-2 ROD; format: cell-based
Description: (§1) T MT-4 lymphocyte cell line which had been transformed into a continuous cell line by an HTLV infection, a virus associated with one form of leukemia, was used to test the antiviral activity (anti-HIV) of AZT- and d4T-conjugated compounds according to the invention, respectively. A characteristic feature of such cells is lack of survival following an HIV infection. The test is based on protection provided by the product (like AZT) against this viral destructive effect. Products were tested in serially diluted solutions in a 96-well plate. In the upper portion of the microplate, products were tested by incubation at various concentrations with cells and virus (in triplicate), so as to determine the concentration of product which affords cell protection against the viral destructive effect. IC50 of the product is taken as the concentration where a 50% loss of viable cell count is recorded. Viable cell count was done with MTT, a yellow tetrazolium compound which undergoes enzymatic reduction (at the mitochondrial level in viable cells) into a purple colored formazan compound. Wells containing viable cells are purple in colour, whereas dead cells give a persistent yellow color. Measurement of optical density (O.D.) allows this effect to be quantified.

[3] = test system: HIV-1 IIIB; assay: anti-HIV activity in MT-4 cells (MTT), HIV-1 IIIB; format: cell-based
Description: as §1

[4] = cytotoxicity on virus-free MT-4 cells (MTT); format: cell-based; conditions: human, MT-4 cells (virus-free)
Description: Cytotoxicity of a given product is assessed in the same manner in the lower portion of the plate where the test is conducted by incubating serially diluted products over virus-free cells, to thereby determine the toxic effect of products on cells. The result is given as CC50, i.e. the concentration at which 50% of cells are dead due to product toxicity. Selectivity (selectivity index, SI) of a given product is defined as a CC50/IC50 ratio. This parameter is of great importance since the selectivity index of a fairly efficient product is high.

[5] = test system: (NANP)6P2P30 antigen; assay: (NANP)6P2P30 murine immunization model: anti-(NANP)6P2P30 IgG (ELISA); format: in vivo, BALB/c mice; conditions: two s.c. shots, serum at 5 weeks, FIG. 79

Structure (SMILES)	Dextran % CD ([1]; 10 μg/ml) [%]	Dextran Fluorescence ([1]; 10 μg/ml)	also measured
CCCCCCCCCCCC(=O)O[C@H](CCCCCCCCCCC)CC(=O)NC(CCOP(=O)(O)O)C(=O)NCCC[C@H](COC(=O)CCCCCN)NC(=O)C[C@H](O)CCCCCCCCCCC (mixture of isomers) [OM-197-MP-AC (R/S, R), (3RS,9R)-3-[(R)-3-dodecanoyloxytetradecanoylamino]-4oxo-5-aza-9-[(R)-3-hydroxytetradecanoylamino]-decan-10-ol 1-dihydrogen-phosphate(6-aminohexanoate)]	84.6	6.3	phagocytic capacity retained (% incorporation of FITC-Dextran of unchallenged cells) ([1]; DC-9 stage, FIG. 74): 22%; concentration required to induce full decrease of Dextran take-up ([1]; FIG. 74): at least 1 μg/ml; concentration inducing differentiation of DC-6 cells into DC-9 cells [1]: 0.1 µg/mL
CCCCCCCCCCCC(=O)O[C@H](CCCCCCCCCCC)CC(=O)N[C@H](CC(=O)N[C@@H](CCCCN)C(=O)O)C(=O)NCCC[C@H](CO)NC(=O)C[C@H](O)CCCCCCCCCCC [OM-197-Lys]	12.1	0.5	–
CCCCCCCCCCCC(=O)O[C@H](CCCCCCCCCCC)CC(=O)N[C@H](CC(=O)N[C@@H](CC(=O)O)C(=O)O)C(=O)NCCC[C@H](CO)NC(=O)C[C@H](O)CCCCCCCCCCC [OM-197-Asp, N—[(R)-3-dodecanoyloxytetradecanoyl]-D-aspartic acid, α-N-{(4R)-5-hydroxy-4-[(R)-3-hydroxytetradecanoylamino]-pentyl}Amide β-N-[(1S)-1,2-Dicarboxyethyl]Amide]	26.4	2.4	–
CCCCCCCCCCCC(=O)O[C@H](CCCCCCCCCCC)CC(=O)N[C@H](CC(=O)O)C(=O)NCCC[C@H](COC(=O)CCCCCNC(=O)CCC(=O)OC[C@H]1O[C@@H](n2cc(C)c(=O)[nH]c2=O)C[C@@H]1N=[N+]=[N-])NC(=O)C[C@H](O)CCCCCCCCCCC [OM-197-MC-AC-Succ-AZT]	62.2	4.8	IC50 [2]: 61 nM; IC50 [3]: 51.9 nM; CC50 [4]: > 94000 nM; ability to induce differentiation of predendritic cells into dendritic cells ([1]; 10 μg/ml): significant ability to induce differentiation into dendritic cells
CCCCCCCCCCCC(=O)O[C@H](CCCCCCCCCCC)CC(=O)N[C@H](CC(=O)O)C(=O)NCCC[C@H](CO)NC(=O)C[C@H](O)CCCCCCCCCCC [OM-197-MC, N—[(R)-3-dodecanoyloxytetradecanoyl]-D-aspartic acid, α-N-{(4R)-5-hydroxy-4[(R)-3-hydroxytetradecanoylamino]-pentyl}amide]	–	–	anti-(NANP)6P2P30 IgG serologic response [5]: greatly superior to the one observed when injecting antigen alone; decrease of phagocytic capacity ([1]; 10 μg/ml): 22%; effect on phagocytosis ([1]; concentrations lower than 3 μg/ml): no effect on phagocytosis; concentration inducing differentiation of DC-6 cells into DC-9 cells [1]: greater than 1 μg/ml
CCCCCCCCCCCC(=O)O[C@H](CCCCCCCCCCC)CC(=O)N[C@H](CC(=O)O)C(=O)NCCC[C@H](COC(=O)CCCCC(O)CO)NC(=O)C[C@H](O)CCCCCCCCCCC (stereo partly drawn) [OM-197-MC-FV5, N—[(R)-3-dodecanoyloxytetradecanoylamino]-D-aspartic acid, α-N-{(4R)-5-hydroxy-4-[(R)-3-hydroxytetra-decanoylamino]-pentyl}amide 5-O-(6,7-dihydroxyheptanoate)]	86.5	6.4	–
CCCCCCCCCCCC(=O)O[C@H](CCCCCCCCCCC)CC(=O)N[C@H](CC(=O)O)C(=O)NCCC[C@H](COC(=O)CCCCCNC(=O)CCC(=O)OC[C@@H]1C=C[C@H](n2cc(C)c(=O)[nH]c2=O)O1)NC(=O)C[C@H](O)CCCCCCCCCCC [OM-197-MC-AC-Succ-d4T]	11.6	0.5	IC50 [2]: 510 nM; IC50 [3]: 963 nM; CC50 [4]: ~97000 nM
CCCCCCCCCCCC(=O)O[C@H](CCCCCCCCCCC)CC(=O)N[C@H](CC(=O)O)C(=O)NCCC[C@H](COC(=O)CCC(=O)O)NC(=O)C[C@H](O)CCCCCCCCCCC [OM-197-MC-Succ]	35.5	3.0	–
CCCCCCCCCCCC(=O)O[C@H](CCCCCCCCCCC)CC(=O)N[C@H](CC(=O)N[C@@H](CC(=O)O)C(=O)O)C(=O)NCCC[C@H](COC(=O)CCCCCN)NC(=O)C[C@H](O)CCCCCCCCCCC [OM-197-Asp-AC, N—[(R)-3-dodecanoyloxytetradecanoyl]-D-aspartic acid, α-N-{(4R)-5-(6-aminohexanoyloxy)-4-[(R)-3-hydroxytetradecanoyl-amino]-pentyl}amide β-N-[(1S)-1,2-dicarboxyethyl]Amide]	22.0	22.1	–
CCCCCCCCCCCC(=O)O[C@H](CCCCCCCCCCC)CC(=O)NC(CCOP(=O)(O)O)C(=O)NCCCC(COC(=O)CCCCC(O)CO)NC(=O)C[C@H](O)CCCCCCCCCCC (stereo partly drawn) [OM-197-FV6, 3-[(R)-dodecanoyloxytetradecanoylamino]-4oxo-5-aza-9-[(R)-3-hydroxytetradecanoylamino]-decan-1,10-diol 1-dihydrogenphate 10-(6,7-dihydroxyheptanoate)]	84.5	6.3	anti-(NANP)6P2P30 IgG serologic response [5]: greatly superior to the one observed when injecting antigen alone; effect on maturation of dendritic cells ([1]; 0.03 to 10 μg/ml): apparently no effect; concentration inducing differentiation of DC-6 cells into DC-9 cells [1]: totally lack such an activity
CCCCCCCCCCCC(=O)O[C@H](CCCCCCCCCCC)CC(=O)N[C@H](CC(=O)O)C(=O)NCCC[C@H](COC(=O)CCCCCN)NC(=O)C[C@H](O)CCCCCCCCCCC [OM-197-MC-AC, N—[(R)-3-dodecanoyloxytetradecanoyl]-D-aspartic acid, α-N-{(4R)-5-(6-aminohexanoyloxy)-4-[(R)-3-hydroxytetradecanoylamino]pentyl}amide]	68.3	5.2	–
CCCCCCCCCCCC(=O)O[C@H](CCCCCCCCCCC)CC(=O)N[C@H](CC(=O)N[C@@H](CCCCN)C(=O)O)C(=O)NCCC[C@H](COC(=O)CCCCCN)NC(=O)C[C@H](O)CCCCCCCCCCC [OM-197-Lys-AC]	92.2	6.8	–
CCCCCCCCCCCC(=O)O[C@H](CCCCCCCCCCC)CC(=O)N[C@H](CC(=O)NCCCN)C(=O)NCCC[C@H](CO)NC(=O)C[C@H](O)CCCCCCCCCCC [OM-197-AP, N—[(R)-3-dodecanoyloxytetradecanoyl]-D-aspartic acid, α-N-{(4R)-5-hydroxy-4-[(R)-3-hydroxy-tetradecanoylamino]pentyl}-amide β-N-(3-aminopropyl)amide]	56.1	4.4	–
